Measurements from US20120264685A1 (priority 2009, published 2012).
Where a SMILES comes first, the peptide text is derived from it. [ ]: non-standard residue; d: D form. ξ: configuration not given here. ξαMeBip(2'-Et,4'-OMe) = CCc1cc(OC)ccc1-c1ccc(CC(C)(N)C(=O)O)cc1; ξBip(2'-Et-4'-OMe) = CCc1cc(OC)ccc1-c1ccc(CC(N)C(=O)O)cc1; ξαMePhe(2,6-F2) = CC(N)(Cc1c(F)cccc1F)C(=O)O; ξαMe(hhPhe) = CC(N)(CCCc1ccccc1)C(=O)O; ξαMePhe(2-F) = CC(N)(Cc1ccccc1F)C(=O)O; ξhhPhe = NC(CCCc1ccccc1)C(=O)O; ξαMeD = CC(N)(CC(=O)O)C(=O)O; ξαMeP = CC1(C(=O)O)CCCN1; ξαMeS = CC(N)(CO)C(=O)O; Aib = CC(C)(N)C(=O)O

Assays:
[1] = Stability in simulated gastric fluid; assay type: in vitro ADME; settings: 2 μM, 37° C.; for half-life (t1/2) in simulated gastric fluid / half-life: pH 1.5; for % degradation in 24 h when incubated with simulated gastric fluid: pH 1.5, 24 h; for half-life: simulated gi fluid, read-out: half-life (t1/2) in simulated gastric fluid
Procedure: (§1) Reactions were terminated by the addition of TFA/H2O ([…], 10% (v/v)). […] The column was equilibrated with TFA/H20, at a flow rate of 1 mL/min. […] The absorbance was monitored at 206 nm using UV detector and peaks were collected manually prior to ESI-MS analysis.

[2] = Stability in human plasma; assay type: in vitro ADME; settings: 2 μM, 37° C.; for half-life: human, plasma, read-out: half-life (t1/2) in human plasma
Procedure: (§2) Different peptidomimetics (final concentration 2 μM) were incubated with either DPP IV (1:25 mU) or pooled human plasma (7.5 μL) or simulated gastric fluid (pH 1.5; composition HCl, NaCl and Pepsin) or simulated intestinal fluid (pH 7.5) or human liver microsomes, for 0, 2, 4, 6, 12 and 24 h (37° C.; 50 mM triethanolamine-HCl buffer; pH 7.8). […] Reactions were terminated by the addition of TFA/H2O ([…], 10% (v/v)). The reaction products were then applied to a Vydac C18 analytical column (4.6×250-mm) and the major degradation fragment separated from intact peptidomimetic. The column was equilibrated with TFA/H20, at a flow rate of 1 mL/min. Using 0.1% (v/v) TFA in 70% acetonitrile/H2O, the concentration of acetonitrile in the eluting solvent was raised from 0% to 28% over 10 min and from 28% to 42% over 30 min. The absorbance was monitored at 206 nm using UV detector and peaks were collected manually prior to ESI-MS analysis. Area under the curve was measured for test peptidomimetics and their metabolites and percentage degradation were calculated at each time point over a period of 24 h.

[3] = Stability in simulated intestinal fluid; assay type: in vitro ADME; settings: 2 μM, 37° C.; for half-life (t1/2) in simulated intestinal fluid / half-life: pH 7.5; for % degradation in 24 h when incubated with simulated intestinal fluid: pH 7.5, 24 h; for half-life: simulated gi fluid, read-out: half-life (t1/2) in simulated intestinal fluid
Procedure: as §1

DPP IV enzyme = DPP IV enzyme (Homo sapiens, UniProt P27487); experiment: Stability against DPP IV enzyme; assay type: in vitro ADME; settings: 2 μM, 37° C.; for half-life: read-out: half-life (t1/2) with DPP-IV enzyme
Procedure: as §2

[4] = test system: RIN5F (Rat Insulinoma) cells; experiment: In vitro glucose-dependent insulin secretion (RIN5F cell assay); assay type: cell-based; settings: 16.7-mM glucose load, n = 3, mean ± S.D.
Method in brief: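 Rat RIN5F cells were preincubated 40 min in Krebs-Ringer buffer with 1.1 mM glucose and 0.5% BSA, pH 7.4, then exposed to test peptidomimetics for 30 min at 37 °C with 16.7 mM or 0 mM glucose. Supernatant insulin was measured by rat insulin ELISA and normalised to total protein (BCA), as pg/μg.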

[5] = Stability in liver microsomes; assay type: in vitro ADME, human; settings: 2 μM, 37° C.; for half-life: human, microsomes, read-out: half-life (t1/2) in liver microsomes
Procedure: as §1

Chain of DPP IV enzyme (P27487 whole entry, species assumed): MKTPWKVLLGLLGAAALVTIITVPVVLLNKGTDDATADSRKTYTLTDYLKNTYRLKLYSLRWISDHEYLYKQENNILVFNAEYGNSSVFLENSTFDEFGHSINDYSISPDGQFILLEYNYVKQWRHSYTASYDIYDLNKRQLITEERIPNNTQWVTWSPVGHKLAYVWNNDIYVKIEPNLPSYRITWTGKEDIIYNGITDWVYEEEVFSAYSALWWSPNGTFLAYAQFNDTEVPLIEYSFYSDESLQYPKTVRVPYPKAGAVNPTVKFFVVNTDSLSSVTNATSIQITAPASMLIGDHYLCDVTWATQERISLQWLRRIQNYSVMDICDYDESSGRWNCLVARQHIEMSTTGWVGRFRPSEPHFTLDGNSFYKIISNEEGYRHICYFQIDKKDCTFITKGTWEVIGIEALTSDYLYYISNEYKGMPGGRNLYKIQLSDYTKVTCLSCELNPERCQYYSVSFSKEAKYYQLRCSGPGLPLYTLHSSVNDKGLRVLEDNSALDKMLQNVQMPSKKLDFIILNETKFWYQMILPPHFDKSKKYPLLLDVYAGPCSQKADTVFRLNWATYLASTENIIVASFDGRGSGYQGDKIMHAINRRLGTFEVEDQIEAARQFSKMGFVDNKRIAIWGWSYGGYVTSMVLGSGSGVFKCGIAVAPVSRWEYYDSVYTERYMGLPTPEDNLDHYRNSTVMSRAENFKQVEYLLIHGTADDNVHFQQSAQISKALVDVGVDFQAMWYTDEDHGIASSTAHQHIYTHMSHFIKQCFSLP

CCc1cc(OC)ccc1-c1ccc(CC(C)(NC(=O)[C@H](CC(=O)O)NC(=O)[C@H](CO)NC(=O)[C@@H](NC(=O)C(C)(Cc2c(F)cccc2F)NC(=O)[C@@H](NC(=O)CNC(=O)[C@H](CCC(N)=O)NC(=O)C2(C)CCCN2C(=O)[C@H](Cc2c[nH]cn2)NC(=O)[C@@H](N)C(C)C)[C@@H](C)O)[C@@H](C)O)C(=O)NC(CCCc2ccccc2)C(N)=O)cc1 (stereo partly shown) [compound 28] (H-VH[ξαMeP]QGT[ξαMePhe(2,6-F2)]TSD[ξαMeBip(2'-Et,4'-OMe)][ξhhPhe]-NH2)
half-life (t1/2) in simulated gastric fluid [1]: (8) h
% degradation in 24 h when incubated with simulated gastric fluid [1]: 14%
% degradation in 24 h when incubated with human plasma [2]: 71%
half-life [2]: 8 h
half-life (t1/2) in simulated intestinal fluid [3]: (6) h
% degradation in 24 h when incubated with simulated intestinal fluid [3]: 40%
% degradation in 24 h when incubated with DPP-IV enzyme (DPP IV enzyme): 70%
half-life (DPP IV enzyme): 9 h
Insulin secretion ([4]; 0.1 nM test compd.): 11.8 ± 0.50 pg/µg/h
Insulin secretion ([4]; 1 nM test compd.): 14.9 ± 0.11 pg/µg/h
Insulin secretion ([4]; 10 nM test compd.): 27.9 ± 0.31 pg/µg/h
% degradation in 24 h when incubated with liver microsomes [5]: 78%
half-life [5]: 1 h

CCc1cc(OC)ccc1-c1ccc(CC(C)(NC(=O)C(C)(CC(=O)O)NC(=O)[C@H](CO)NC(=O)[C@@H](NC(=O)C(C)(Cc2ccccc2F)NC(=O)[C@@H](NC(=O)CNC(=O)[C@H](CCC(N)=O)NC(=O)C(C)(C)NC(=O)[C@H](Cc2c[nH]cn2)NC(=O)[C@@H](N)C(C)C)[C@@H](C)O)[C@@H](C)O)C(=O)NC(C)(CCCc2ccccc2)C(N)=O)cc1 (stereo partly shown) [compound 191] (H-VH[Aib]QGT[ξαMePhe(2-F)]TS[ξαMeD][ξαMeBip(2'-Et,4'-OMe)][ξαMe(hhPhe)]-NH2)
half-life (t1/2) in simulated gastric fluid [1]: (8) h
% degradation in 24 h when incubated with simulated gastric fluid [1]: 12%
% degradation in 24 h when incubated with human plasma [2]: 78%
half-life [2]: 8 h
half-life (t1/2) in simulated intestinal fluid [3]: (6) h
% degradation in 24 h when incubated with simulated intestinal fluid [3]: 55%
% degradation in 24 h when incubated with DPP-IV enzyme (DPP IV enzyme): 76%
half-life (DPP IV enzyme): 9 h
Insulin secretion ([4]; 0.1 nM test compd.): 16.1 ± 0.22 pg/µg/h
Insulin secretion ([4]; 1 nM test compd.): 22.1 ± 0.26 pg/µg/h
Insulin secretion ([4]; 10 nM test compd.): 36.0 ± 0.36 pg/µg/h
% degradation in 24 h when incubated with liver microsomes [5]: 79%
half-life [5]: 1 h

CCc1cc(OC)ccc1-c1ccc(CC(C)(NC(=O)[C@H](CC(=O)O)NC(=O)C(C)(CO)NC(=O)[C@@H](NC(=O)[C@H](Cc2ccccc2)NC(=O)[C@@H](NC(=O)CNC(=O)[C@H](CCC(=O)O)NC(=O)[C@H](C)NC(=O)[C@H](Cc2c[nH]cn2)NC(=O)[C@@H](N)C(C)C)[C@@H](C)O)[C@@H](C)O)C(=O)NC(CCCc2ccccc2)C(N)=O)cc1 (stereo partly shown) [compound 38] (H-VHAEGTFT[ξαMeS]D[ξαMeBip(2'-Et,4'-OMe)][ξhhPhe]-NH2)
% degradation in 24 h when incubated with simulated gastric fluid [1]: 00%
half-life [1]: > 24 h
% degradation in 24 h when incubated with human plasma [2]: 00%
half-life [2]: > 24 h
% degradation in 24 h when incubated with simulated intestinal fluid [3]: 00%
half-life [3]: > 24 h
% degradation in 24 h when incubated with DPP-IV enzyme (DPP IV enzyme): 00%
half-life (DPP IV enzyme): > 24 h
Insulin secretion ([4]; 0.1 nM test compd.): 13.1 ± 0.11 pg/µg/h
Insulin secretion ([4]; 1 nM test compd.): 14.9 ± 0.17 pg/µg/h
Insulin secretion ([4]; 10 nM test compd.): 28.8 ± 0.44 pg/µg/h
half-life (t1/2) in liver microsomes [5]: (5) h
% degradation in 24 h when incubated with liver microsomes [5]: 31%

CCc1cc(OC)ccc1-c1ccc(CC(C)(NC(=O)[C@H](CC(=O)O)NC(=O)C(C)(CO)NC(=O)[C@@H](NC(=O)C(C)(Cc2ccccc2F)NC(=O)[C@@H](NC(=O)CNC(=O)[C@H](CCC(=O)O)NC(=O)[C@H](C)NC(=O)[C@H](Cc2c[nH]cn2)NC(=O)[C@@H](N)C(C)C)[C@@H](C)O)[C@@H](C)O)C(=O)NC(C)(CCCc2ccccc2)C(N)=O)cc1 (stereo partly shown) [compound 170] (H-VHAEGT[ξαMePhe(2-F)]T[ξαMeS]D[ξαMeBip(2'-Et,4'-OMe)][ξαMe(hhPhe)]-NH2)
% degradation in 24 h when incubated with simulated gastric fluid [1]: 52%
half-life [1]: 4 h
% degradation in 24 h when incubated with human plasma [2]: 00%
half-life [2]: > 24 h
% degradation in 24 h when incubated with simulated intestinal fluid [3]: 00%
half-life [3]: > 24 h
% degradation in 24 h when incubated with DPP-IV enzyme (DPP IV enzyme): 00%
half-life (DPP IV enzyme): > 24 h
Insulin secretion ([4]; 0.1 nM test compd.): 12.3 ± 0.33 pg/µg/h
Insulin secretion ([4]; 1 nM test compd.): 14.8 ± 0.16 pg/µg/h
Insulin secretion ([4]; 10 nM test compd.): 28.1 ± 0.22 pg/µg/h
% degradation in 24 h when incubated with liver microsomes [5]: 81%
half-life [5]: 2 h

CCc1cc(OC)ccc1-c1ccc(CC(NC(=O)C(C)(CC(=O)O)NC(=O)C(C)(CO)NC(=O)[C@@H](NC(=O)[C@H](Cc2ccccc2)NC(=O)[C@@H](NC(=O)CNC(=O)[C@H](CCC(N)=O)NC(=O)[C@H](C)NC(=O)[C@H](Cc2c[nH]cn2)NC(=O)[C@@H](N)C(C)C)[C@@H](C)O)[C@@H](C)O)C(=O)NC(C)(CCCc2ccccc2)C(N)=O)cc1 (stereo partly shown) [compound 108] (H-VHAQGTFT[ξαMeS][ξαMeD][ξBip(2'-Et-4'-OMe)][ξαMe(hhPhe)]-NH2)
% degradation in 24 h when incubated with simulated gastric fluid [1]: 00%
half-life [1]: > 24 h
% degradation in 24 h when incubated with human plasma [2]: 00%
half-life [2]: > 24 h
% degradation in 24 h when incubated with simulated intestinal fluid [3]: 00%
half-life [3]: > 24 h
% degradation in 24 h when incubated with DPP-IV enzyme (DPP IV enzyme): 00%
half-life (DPP IV enzyme): > 24 h
Insulin secretion ([4]; 0.1 nM test compd.): 11.9 ± 0.17 pg/µg/h
Insulin secretion ([4]; 1 nM test compd.): 14.2 ± 0.13 pg/µg/h
Insulin secretion ([4]; 10 nM test compd.): 27.6 ± 0.16 pg/µg/h
half-life (t1/2) in liver microsomes [5]: (5) h
% degradation in 24 h when incubated with liver microsomes [5]: 33%

CCc1cc(OC)ccc1-c1ccc(CC(C)(NC(=O)C(C)(CC(=O)O)NC(=O)[C@H](CO)NC(=O)[C@@H](NC(=O)C(C)(Cc2c(F)cccc2F)NC(=O)[C@@H](NC(=O)CNC(=O)[C@H](CCC(N)=O)NC(=O)C(C)(C)NC(=O)[C@H](Cc2c[nH]cn2)NC(=O)[C@@H](N)C(C)C)[C@@H](C)O)[C@@H](C)O)C(=O)NC(CCCc2ccccc2)C(N)=O)cc1 (stereo partly shown) [compound 75] (H-VH[Aib]QGT[ξαMePhe(2,6-F2)]TS[ξαMeD][ξαMeBip(2'-Et,4'-OMe)][ξhhPhe]-NH2)
half-life (t1/2) in simulated gastric fluid [1]: (8) h
% degradation in 24 h when incubated with simulated gastric fluid [1]: 12%
% degradation in 24 h when incubated with human plasma [2]: 75%
half-life [2]: 8 h
half-life (t1/2) in simulated intestinal fluid [3]: (6) h
% degradation in 24 h when incubated with simulated intestinal fluid [3]: 46%
% degradation in 24 h when incubated with DPP-IV enzyme (DPP IV enzyme): 74%
half-life (DPP IV enzyme): 9 h
Insulin secretion ([4]; 0.1 nM test compd.): 16.4 ± 0.12 pg/µg/h
Insulin secretion ([4]; 1 nM test compd.): 22.7 ± 0.17 pg/µg/h
Insulin secretion ([4]; 10 nM test compd.): 36.6 ± 0.05 pg/µg/h
% degradation in 24 h when incubated with liver microsomes [5]: 83%
half-life [5]: 1 h

CCc1cc(OC)ccc1-c1ccc(CC(NC(=O)[C@H](CC(=O)O)NC(=O)[C@H](CO)NC(=O)[C@@H](NC(=O)[C@H](Cc2ccccc2)NC(=O)[C@@H](NC(=O)CNC(=O)[C@H](CCC(N)=O)NC(=O)[C@H](CO)NC(=O)[C@H](Cc2c[nH]cn2)NC(=O)[C@@H](N)C(C)C)[C@@H](C)O)[C@@H](C)O)C(=O)NC(C)(CCCc2ccccc2)C(N)=O)cc1 (stereo partly shown) [compound 81] (H-VHSQGTFTSD[ξBip(2'-Et-4'-OMe)][ξαMe(hhPhe)]-NH2)
half-life (t1/2) in simulated gastric fluid [1]: (8) h
% degradation in 24 h when incubated with simulated gastric fluid [1]: 14%
% degradation in 24 h when incubated with human plasma [2]: 71%
half-life [2]: 8 h
half-life (t1/2) in simulated intestinal fluid [3]: (6) h
% degradation in 24 h when incubated with simulated intestinal fluid [3]: 40%
% degradation in 24 h when incubated with DPP-IV enzyme (DPP IV enzyme): 70%
half-life (DPP IV enzyme): 9 h
Insulin secretion ([4]; 0.1 nM test compd.): 16.8 ± 0.20 pg/µg/h
Insulin secretion ([4]; 1 nM test compd.): 22.7 ± 0.29 pg/µg/h
Insulin secretion ([4]; 10 nM test compd.): 36.6 ± 0.31 pg/µg/h
% degradation in 24 h when incubated with liver microsomes [5]: 78%
half-life [5]: 1 h
